From ChEMBL document CHEMBL3507680, “University of Dundee, Gates Library screen for HepG2 cell viability” come the findings set out here.

A short description of the data set: Human HepG2 cell viability assay in 384 well format. The format is toxicity, cell-based. The settings on record: HepG2 cells, read-out: Inhibition. The arrangement: dose 125 nL, time 70.5 hour; cytotoxicity at 70.5 h: concentration not given beside the values.
For the molecule `CC[C@H](C)[C@@H](CO)NC(C)Cc1ccc(C)cc1` (stereo partly drawn), the cytotoxicity at 70.5 h was -2%.
For `CCNC(=O)[C@@H]1C[C@H](NC(=O)c2cncnc2C)CN1Cc1ccsc1` the value was -17%.
For `CCN(C)S(=O)(=O)c1c(F)cc(NC(C)=O)cc1F` the value was -2.83%; for `CC(C)COCCNC(=O)NC1CCCN(c2cnn(C)c2)C1` (stereo not drawn), -0.131%; for `COc1cccc2c1OCCCN(c1nc(N)nc3c1CCNC3)C2`, 12.6%.
For `Cc1cccc2nc(CSCc3nnnn3C(C)C)cn12` the value was -14.3%; for `CC(C)C(=O)N1CCN(Cc2cnn(C)c2)CC2(CC(=O)N(C)C2)C1` (stereo not drawn), -13.2%.
Consider `Clc1cccnc1N1CCC(C2CCN(Cc3cccnc3)CC2)C1` (stereo not drawn), for which the cytotoxicity at 70.5 h is 25.7%.
Regarding `O=C(c1ccoc1)N1CC[C@H]2[C@H]1CCN2CC1CC1`, the cytotoxicity at 70.5 h was -3.04%.
On to `Cc1cc(C)n(CC2CN(Cc3cccc(C(N)=O)c3)CCO2)n1` (stereo not drawn), for which the cytotoxicity at 70.5 h amounted to 6.91%.
With `O=S(=O)(Nc1ccc(N2CCOCC2)cc1)c1cccc(F)c1`, the cytotoxicity at 70.5 h is -1.37%.
As to `c1cnnc(NCC2CN(Cc3ccon3)CCO2)c1` (stereo not drawn), the cytotoxicity at 70.5 h was 26.6%.
For `Cc1cc(CN2CC[C@@H]3O[C@@H](c4nnc(C)o4)C[C@H]3C2)no1` the value was -3.3%.
`Cc1nnc(N2CCN(C(=O)NC3CC3)CC2)c(C(N)=O)c1C`: the cytotoxicity at 70.5 h is -15.7%.
Consider `CCc1nc(CN2CCCN(C(=O)c3cncnc3C)CC2)cs1`, for which the cytotoxicity at 70.5 h was -7.12%.
With `CCOCCSc1nnc(-c2cn(CC)nc2OCC)n1C` the figure was -7.58%.
With `Cc1ccsc1C(=O)Nc1cnn(CC(=O)NC2CCCC2)c1` the figure was 23.1%; with `Cc1ccc(C2(O)CCN(C(=O)c3cccc(S(C)(=O)=O)c3)CC2)nc1`, -4.42%.
Consider `CCOCCC(=O)Nc1cccc(Cl)c1COC`, for which the cytotoxicity at 70.5 h is -2.76%.
With `CCS(=O)(=O)NCC1Cn2nnc(-c3ccccc3)c2CO1` (stereo not drawn) the figure was -1.57%.
For `Cn1cccc1C(=O)N1C[C@H]2CC[C@@H]1CN(Cc1cscn1)C2` the value was 1.29%.
For `COCCNC(=O)Nc1ccc(F)c(C(N)=O)c1` the value was -6.9%; for `Fc1cccc(C2(CNC3CCOC4(CCOCC4)C3)CCOCC2)c1` (stereo not drawn), -5.85%.
For the molecule `CC1CCCN(C(=O)c2ccc(N(C)Cc3cnn(C)c3)nc2)C1` (stereo not drawn), the cytotoxicity at 70.5 h was found to be 20.1%.
`Cc1ccc(C2=CCN(C(=O)C3CCN(C)C(=O)C3)CC2)cc1` (stereo not drawn): the cytotoxicity at 70.5 h is -6.32%.
With `O=C(CCN1CCc2ccccc21)N1CC(C(=O)N2CCOCC2)C1` the figure was -5.25%.
With `CCCN1CCCn2nc(CNS(=O)(=O)c3ccc(F)cc3)cc2C1` the figure was 4.7%; with `COCc1ncc(CN(Cc2ccncc2)Cc2ccc(C)s2)cn1`, -6.86%; with `Cn1cnc2c1C(COCc1ccccc1)N(Cc1ccccn1)CC2` (stereo not drawn), -0.00457%.
On to `Cc1cc(C(=O)N2CCOC[C@H](Oc3cccnc3)C2)c(C(F)(F)F)o1`, for which the cytotoxicity at 70.5 h was determined as 9.27%.
With `Cc1nc(N)sc1C(=O)N[C@H]1CN(CCO)C[C@@H]1C1CC1` the figure was -2.54%; with `CC(=O)N[C@H]1CCO[C@@H](c2cccc(NC(=O)c3ccc(=O)[nH]n3)c2)C1`, 24.6%.
With `Cc1ccc2nc(C)c(C)c(C(=O)N3CCS(=O)(=O)CC3)c2c1` the figure was -12.9%.
With `Cn1ccc2c(-c3ccc(NCCO)nn3)ccnc21` the figure was -9.8%; with `CCCS(=O)(=O)N1CCN(Cc2ccco2)CC1`, -7.67%.
Turning to `COc1ccccc1C1(CNC(=O)NCc2noc(C)n2)CC1`, the cytotoxicity at 70.5 h turned out to be 26.4%.
For `CN(C)S(=O)(=O)N1CCN(C(=O)c2cc(-c3ccc(Br)s3)n[nH]2)CC1` the value was -10.1%.
Turning to `Cc1cc(CN2CCCC2c2noc(C)n2)no1` (stereo not drawn), the cytotoxicity at 70.5 h came out at 4.25%.
With `O=C(C1CCOCC1)N1C[C@H]2CCC[C@@]2(COc2cccnc2)C1` the figure was -1.29%; with `Cc1cccc(C2CCCN(C(=O)C3CCN(CC(N)=O)CC3)C2)c1` (stereo not drawn), -17.7%.
With `CC(=O)N[C@@H]1CN(S(=O)(=O)Cc2ccccc2)C[C@H]1C(C)C` the figure was -0.553%; with `COc1ccc(S(=O)(=O)N[C@H]2CN(C(C)=O)C[C@@H]2C(C)C)cc1F`, -12.5%; with `CCN1CCC2(CCC1=O)CN(C1CCOCC1)CCN2C` (stereo not drawn), -6.68%.
With `COCC(=O)N1CCOC(c2cccc(-c3cncnc3)n2)C1` (stereo not drawn) the figure was -5.56%; with `CN1CCCC1c1ccc(C(=O)Nc2c3c(nn2C)CCC3)s1` (stereo not drawn), -13%.
On to `Nc1nc(CN2CCCCC2Cn2cncn2)nc2ccccc12` (stereo not drawn), for which the cytotoxicity at 70.5 h came out at 0.228%.
For `COCCNc1cc(C)nn2cnnc12` the value was 11.1%; for `CNS(=O)(=O)c1csc(C(=O)N(C)Cc2ccccc2C)c1`, 0.0278%.
For `CC(C)C(=O)NC1CCCN(C(=O)c2cc3ccccc3cc2O)C1` (stereo not drawn) the value was -4.18%; for `COCc1ncn(Cc2nc(-c3ccc(OC)c(OC)c3)oc2C)n1`, 27.5%; for `COc1cccc(CNC(=O)c2ccccc2-n2cc(CN)cn2)c1`, -2.7%.
With `Cc1c(OCC(=O)NCc2ccccc2)c(=O)ccn1C` the figure was -17.6%.
In the case of `COCC(=O)N1CCN(C(=O)NC(C)C)CC2(CC(=O)N(C)C2)C1` (stereo not drawn), the cytotoxicity at 70.5 h is 9.18%.
For `Cc1cnn(CCCN2C(=O)CCc3ccccc32)c1` the value was 11.4%.
For `CCOCC1CN(C(=O)C2=CCCC2)Cc2cnn(CC)c21` (stereo not drawn) the value was -16.7%; for `Cc1cccnc1C(Nc1nccc(C2CCCC2)n1)C1CC1` (stereo not drawn), 0.357%; for `O=C(NCCc1ccc(F)cc1)NCC(O)c1cccc(F)c1` (stereo not drawn), 23.3%.
With `Cc1cc(C)nc(NCc2cc3n(n2)CCCN(C(=O)C2CCC2)C3)n1` the figure was -1.4%; with `Cc1cc(C2CCCN(CCc3ccccn3)C2)n[nH]1` (stereo not drawn), -17%.
Regarding `COc1ccccc1CC(C)(C)NC(=O)CN(C)C(C)C`, the cytotoxicity at 70.5 h was -11.5%.
With `O=S(=O)(NC1CCCN(c2ncccn2)C1)N1CCCCCC1` (stereo not drawn) the figure was -7.28%.
With `COCC(C)NC(=O)CN1CCC2(CC1)OCCO2` (stereo not drawn) the figure was -3.81%; with `Clc1cccc(-c2noc(CCN3CCN(c4ccncc4)CC3)n2)c1`, 4%.
Consider `CC1COCCN1C(=O)COc1cccc(Oc2ccccn2)c1` (stereo not drawn), for which the cytotoxicity at 70.5 h is -9.57%.
For `O=C(NCc1ccco1)[C@@H]1C[C@H]2OCC[C@H]2N(c2ncc(F)cn2)C1` the value was -14.6%; for `CS(=O)(=O)c1ccc(-c2c[nH]c([C@@H]3COCCN3)n2)cc1`, -8.19%.
For `Cc1cc(C(=O)Nc2ccc(OCCN3CCN(C)CC3)cc2)[nH]n1` the value was 0.21%; for `Cc1cc(C)n(C2CN(c3ncnc4[nH]ccc34)C2)n1`, -3.24%; for `Cc1cccc(-c2noc(CN3CCCC3Cn3cncn3)n2)c1` (stereo not drawn), -1.92%.
Consider `Cc1cccc(CN(Cc2ccc(C)o2)C2CC(C)(C)NC(C)(C)C2)n1`, for which the cytotoxicity at 70.5 h is -9.61%.
For `Cc1cccc(CN2C[C@@H]3CCCO[C@@H]3[C@H](NS(C)(=O)=O)C2)n1`, the cytotoxicity at 70.5 h was -3.48%.
For `CSc1ncc(C(=O)N2CCN(c3ccccc3C)CC2C)cn1` (stereo not drawn) the value was -2.82%; for `Cn1c(C2CCCCN2C(=O)CN2CCCC2=O)nc2ccccc21` (stereo not drawn), 21.3%.
For `Cc1nc(CN2CCC3(CC2)NC(=O)CC3c2cccnc2)cs1` (stereo not drawn) the value was -8.17%; for `N#Cc1cccc(CN2CC[C@@H]3CO[C@@H](CN4CCCC4)[C@@H]3C2)c1`, -4.24%.
Turning to `COC(=O)c1cc(OCC2CCC2)cc(C(=O)N[C@@H]2CNCC[C@H]2O)c1`, the cytotoxicity at 70.5 h stood at 19.4%.
For the molecule `CN1CCCC2(CCN(C(=O)Cc3cc4c(cc3Cl)OCCO4)C2)C1=O` (stereo not drawn), the cytotoxicity at 70.5 h was -2.31%.
For `Cc1cc(C)c2c(OCC(=O)NCC(O)C(F)(F)F)nn(C)c2n1` (stereo not drawn), the cytotoxicity at 70.5 h is -15.2%.
For `NC(=O)NC(=O)CCN1CCN(c2nccs2)CC1` the value was 19.6%; for `CCC1CN(CC(=O)N2CCN(C(C)=O)CC2)CCN1CCOC` (stereo not drawn), -7.53%; for `CCCc1ccc(CN2C[C@H]3C(=O)N(CC4CC4)C[C@@]3(C(=O)O)C2)o1`, -6.58%.
Consider `Cc1ncc(-c2ccnc(NCCO)n2)c(C2CCCCC2)n1`, for which the cytotoxicity at 70.5 h worked out at 21.9%.
With `CCc1nc(NS(=O)(=O)c2ccc(C)cc2Cl)no1` the figure was -4.3%; with `COC[C@@]12CC[C@@H](N3CCOCC3)C[C@H]1CCN(c1ncccn1)C2`, -10.2%.
For `CNC(=O)CCc1cc(C2CCCN2C(=O)CO)nc(C)n1` (stereo not drawn) the value was -5.79%.
With `CC(C)C1CN(C(=O)c2nccnc2N)CCS1` (stereo not drawn), the cytotoxicity at 70.5 h was -4.8%.
For `CC(=O)NC1CCCN(C(=O)CCc2cccnc2)C1` (stereo not drawn) the value was 19.2%; for `COCCn1cc(-c2cc(C(=O)N3CCCC3)c3ccccn23)nc1C`, -0.704%.
With `Cn1cc(CN2CCOC[C@H]2c2nc(C(C)(C)C)co2)c2ccccc21` the figure was -2.71%.
For `Cc1nc(Nc2nnc(C)s2)cc(C2CCCN2C(C)C)n1` (stereo not drawn) the value was 5.99%.
For `COc1ccc(CC(C)(O)CNC(=O)Cc2ccc(F)cc2)cc1` (stereo not drawn), the cytotoxicity at 70.5 h is -21%.
In the case of `CNc1nc(C(=O)N2CCCC(CO)(CCCOC)C2)cs1` (stereo not drawn), the cytotoxicity at 70.5 h is -4.71%.
With `CN1C(=O)C(c2ccccc2)CC12CCN(CCOCCO)CC2` (stereo not drawn) the figure was 3.55%; with `CCC(C)N(Cc1cnc(NCC(=O)O)nc1)Cc1ccsc1` (stereo not drawn), -7.35%.
For `CC(NC(=O)CCn1cccn1)c1ccc2c(c1)OCCO2` (stereo not drawn) the value was 14.2%.
In the case of `O=C(CCc1ccc2c(c1)CCO2)Nc1nnn[nH]1`, the cytotoxicity at 70.5 h was -6.65%.
For `Cc1ccc(CN2CCCC3(CCN(S(C)(=O)=O)C3)C2)o1` (stereo not drawn) the value was -10.2%; for `Cc1oc(CN(C)C(=O)c2ccc(C(F)(F)F)cc2)cc1C(=O)O`, -6.23%.
